{"source": "patent US10213494B2", "about": "“Treatment of synucleinopathies” (The Brigham and Women's Hospital, Inc., priority 2007, dated 2019)", "key": {"[1]": {"test_system": "α-synuclein protein (wild-type, human) in MES23.5 cells", "experiment": "Sandwich ELISA of intracellular α-synuclein in MES23.5 cells co-transfected with wild-type human SNCA cDNA and lysosomal enzyme cDNA", "assay_type": "cell-based", "conditions": "for intracellular α-synuclein level, % of control levels: n=2", "procedure": "Sera from six rabbits were raised and affinity-purified at Open Biosystems, Inc. (openbiosystems.com) against recombinant, full-length human αS. Recombinant αS had been HPLC- and MS-characterized and subjected to amino acid composition and protein concentration analyses. For ELISA, 384-well MaxiSorp plates (Nunc, Inc) were coated with 50 μl/well capturing polyclonal Ab (hSA-2) diluted in coating buffer (NaHCO3 with 0.2% NaN3, pH 9.6). Following washes with PBS/0.05% Tween-20 (PBS-T), plates were blocked for 2 hours at 37° C. in blocking buffer (1.125% fish skin gelatin; PBS-T). After 4 washes, samples were loaded and incubated at 4° C. for 12 hours. Biotinylated Syn-1 mAb (as the assaying Ab) was generated using 200 μg Sulfo-NHS-LC Biotin (Pierce), diluted in blocking buffer and added to the plate for 2 hours at 37° C. Following 4 washes, ExtrAvidin phosphatase (Sigma) diluted in blocking buffer was applied for 1 hr at 37° C. Color development was carried out by using Fast-p-Nitrophenyl Phosphate (Sigma) and monitored kinetically at OD 405 nm every 5 minutes for up to 60 minutes.\nTo optimize a ‘DNA: LIPOFECTAMINE® 2000’ ratio with low cell toxicity, MES23.5 cells were transfected with either 0.25, 0.5 or 1 μg αS-encoding, wild-type, human SNCA cDNA plus empty vector cDNA up to a total of 5.5 μg DNA per 10 cm dish. 24 hours after transfection, cell lysates were harvested as described above. For serial dilutions of cell lysates, blocking buffer containing 0.5% lysate from vector-transfected wells was used as diluent, which was also used to create the blank and the corresponding standard curve of recombinant human αS. Saturation kinetics were examined for identification of time point(s) where standards and sample dilutions were in the log phase.\nMES cells were transfected with 0.5 μg per 10 cm dish of αS-encoding SNCA cDNA-carrying plasmid, plus 5 μg per 10 cm dish of wild-type or mutant, human GBA-encoding plasmid. The GBA variants used were wild type, N370S, D409H, L444P, E235A, and E340A. These 5 GBA mutants were created by site-directed mutagenesis, using the Quickchange® kit (Stratagene), and sequence-verified. The N370S, D409H and L444P are known to occur (in the homozygous or compound heterozygous state) in Gaucher disease in the heterozygous state in Parkinson Disease patients and/or patients with dementia with Lewy bodies. The E235A and E340A mutant GBA proteins are not known to occur in people.\n24 hours after transfection, MES cells were lysed as described above and all lysates were analyzed by ELISA. […] This is in contrast to the result observed in Example 5 above. The observed discrepancy can reflect the differences in total DNA transfected in the two paradigms (FIG. 2B; FIG. 2C versus FIG. 4), thereby leading to changes in the DNA:LIPOFECTAMINE® 2000 ratio, and in the role of co-expressed prosaposin (saposin C). It is therefore conceivable that wild-type GBA can have variable effects on αS levels in these MES23.5 cells, depending on the rate of αS import into lysosomes and the composition as well as activation state of more than one lysosomal enzyme.\nMES23.5 cells were transfected with 0.5 μg per 10 cm dish of an αS-encoding, wild-type, human SNCA cDNA-carrying plasmid (referred to as MES-hSNCA WT cells in the Western blot shown in FIG. 6), plus either 1.25, 2.5 or 5 μg per 10 cm dish of a human Cathepsin D-encoding CTSD cDNA plasmid, which was purchased from OriGene Technologies, Inc., and was under the control of a CMV promoter. The Cathepsin D clone was fully sequence-verified after isolation and maxiprep. Each transfection arm was balanced with empty vector DNA up to a total of 5.5 μg DNA per 10 cm dish. 24 hours after transfection, cells were lysed, and the resulting lysates were analyzed by the sandwich ELISA described herein. […]"}, "rat αS in MES23.5 cells": {"test_system": "rat αS in MES23.5 cells", "experiment": "Sandwich ELISA of co-transfected rat αS in MES23.5 cells", "assay_type": "cell-based", "conditions": "human Cathepsin D, same paradigm"}, "[2]": {"test_system": "α-synuclein protein in MES23.5 cells", "experiment": "Western blot of α-synuclein in co-transfected MES23.5 cells", "assay_type": "cell-based, human", "conditions": "co-expression with αS for 24 hours; syn-1, 7071AP and hSA-2 antibodies", "procedure": "Cells were transfected with 0, 0.25, 0.5, 1, 5, and 10 μg (per 10 cm dish) of plasmid. 24 hours later, cells were washed with Tris-buffered saline and lysed in 140 mM NaCl, 50 mM Tris-Hcl, pH 8.0, 1 mM EDTA, 0.5% Triton-X100, and 1× protease inhibitors. Lysates were centrifuged at 100,000×g for 30 min at 4° C.; the top 2/3 of supernatants were removed and frozen in siliconized tubes at −80° C. Samples were run on SDS/PAGE, using 1 mM DTT as the reducing agent. Expression of the αS protein was confirmed at 24 hours post-transfection by Western blotting, where cell lysates were probed with a monoclonal antibody against αS protein (syn-1 antibody, BD Transduction Labs).\nMES23.5 cells were transfected with 0.5 μg αS-encoding SNCA cDNA per 10 cm dish plus either 1.25, 2.5 or 5 μg (low, medium, or high) GBA-encoding cDNA in the absence or presence of 5 μg of Prosaposin-encoding cDNA. All arms of the experiment were balanced up to a total of 10.5 μg cDNA per 10 cm dish using empty vector cDNA. The GBA- and Prosaposin-encoding cDNA plasmids under a CMV promoter, as well as the pCMV-XL5 empty vector were purchased from OriGene Technologies, Inc (clones had been fully sequence-verified after isolation and a maxiprep). 24 hours later, cells were lysed and probed for GBA and αS protein levels. The upper panel in of FIG. 2B3 is a representation of a Western Blot indicating expression of GBA protein in the absence and presence of co-transfected prosaposin. GBA was probed using the monoclonal antibody 8E4. GBA over-expression occurred in a slightly gene-dosage dependent way in the absence of prosaposin. In the presence of prosaposin over-expression, the GBA signal itself was decreased. […]"}, "MES-syn cells": {"test_system": "MES-syn cells", "experiment": "MTT assay of cellular metabolism", "assay_type": "cell-based, rodent", "conditions": "CTSD cDNA 5 μg/10 cm dish; control vector 100+/−4.05%; n=6", "procedure": "To confirm that the effect of Cathepsin D on lowering of αS in MES23.5 cells was specific and was not caused by a general decrease in cellular metabolism and integrity, the MTT and LDH assays were performed on MES-syn cells that had been co-transfected with the highest amount of Cathepsin D-encoding cDNA (5 μg/10 cm dish). Lysis of cells with 0.1% Triton-X® 100 served as a positive control, representing maximal cell death."}}, "data": [{"substance": "cathepsin D: human lysosomal aspartyl protease expressed from CTSD cDNA plasmid under a CMV promoter", "values": [{"measurement": "intracellular α-synuclein level, % of control levels", "setting": "[1]; cathepsin D cDNA 1.25 μg/10 cm dish, 24 hours", "result": "68+/−17.7%"}, {"measurement": "intracellular α-synuclein level, % of control levels", "setting": "[1]; cathepsin D cDNA 2.5 μg/10 cm dish, 24 hours", "result": "53+/−16.8%"}, {"measurement": "intracellular total α-synuclein level, % of control levels", "setting": "[1]; cathepsin D cDNA 5 μg/10 cm dish, 24 hours, n=11", "result": "25.3+/−7.0%"}, {"measurement": "αS-lowering effect, percent of total intracellular αS concentration detectable", "setting": "[1]; cathepsin D co-expression", "result": "≤ 75", "unit": "%"}, {"measurement": "effect on level of co-transfected rat αS", "setting": "rat αS in MES23.5 cells", "result": "able to lower the levels of co-transfected rat αS"}, {"measurement": "generation of lower or higher molecular weight αS species", "setting": "[2]", "result": "did not lead to the generation of any visible lower or higher molecular weight species"}, {"measurement": "MTT signal", "setting": "MES-syn cells", "result": "101.3+/−3.91%"}]}]}
